Measurements: the NIST ThermoML archive (doi:10.1016/j.fluid.2008.07.003)

Details: Liquid

FCC(F)(F)F [1,1,1,2-tetrafluoroethane]
Details | vapor or sublimation pressure [kPa]
283.15 K | 416
293.15 K | 572.4
303.15 K | 771.5
313.15 K | 1017.5
323.15 K | 1318.8
333.15 K | 1681.6
343.15 K | 2114.5
353.15 K | 2629
